Tested on: Mfn2 null MEFs
Experiment: Mitochondrial elongation (aspect ratio) fusogenicity assay
Format: cell-based, mouse
Set-up: % long compare to B: dose or concentration left out as unconfirmed
Conditions: for % long compare to B: mitochondrial elongation relative to Cpd B (B01 = 100), compound overnight as printed (FIG. 48); for % long compare to B / Aspect ratio (MEAN ± SEM): Mfn2 null MEFs; for Aspect ratio (MEAN ± SEM): overnight, treatment with 1 μM compound (footnote); for Fusogenicity Rank: rank order of aspect ratio among 44 soluble library compounds
Description: A cultured murine embryonic fibroblast assay system was used in which mitochondrial elongation (an increase in aspect ratio) reflects enhanced mitochondrial fusion.
A pharmacophore model was generated based on the interactions of HR1 and HR2 domains in the calculated structural model of Mfn2 in the closed conformation. The key features included hydrophobic interactions involving Mfn2 HR1: Val372 and Met376, and aromatic interactions and hydrogen bonding involving Mfn2 HR1 His380. […] A library comprising ˜14 million commercially available compounds was prepared in silico and evaluated using PHASE to fit these criteria. Top ranked hits were clustered, and filtered based on pharmacological properties using Qikprop. The top 55 (see TABLE 4) commercially available small molecules conforming to the model were selected for functional screening and purchased in 1 mg aliquots. […] Images were acquired by confocal microscopy. Each compound was scored for fusogenicity (see e.g., FIG. 24A) and % cell death (see e.g., FIG. 24B).
Cells were excited with 408 nm (Hoechst), […] (MitoTracker Green and Calcein AM, GFP), or 637 nm (TMRE, MitoTracker Orange, Ethidium homodimer-1, and AF594-Dextran) laser diodes. For mitochondrial elongation studies mitochondrial aspect ratio (long axis/short axis) was calculated using automated edge detection and Image J software. Mitochondrial depolarization was calculated as % of green mitochondria visualized on MitoTracker Green and TMRE merged images, expressed as green/(green+yellow mitochondria)×100.

`Cc1cccc(-n2ccnc2SC(C)C(=O)Nc2sc3c(c2C(N)=O)CCC3)c1C` (stereo not drawn) [1-E10, 2-(2-{[1-(2,3-dimethylphenyl)-1H-imidazol-2-yl]sulfanyl}pro-panamido)-4H,5H,6H-cyclo-penta[b]thiophene-3-carboxamide] was tested, and the “% long compare to B” value was 21%.

For `Cc1ccc(NC(=O)CC2SC(NC(c3ccc(C(C)C)cc3)c3c(O)[nH]c(=O)[nH]c3=O)=NC2=O)c(C)c1` (stereo not drawn) [drawing 252, N-(2,4-dimethylphenyl)-2-(2-{[(6-hydroxy-2,4-dioxo-1,2,3,4-tetrahydropyrimidin-5-yl)[4-(propan-2-yl)phenyl]methyl]amino}-4-oxo-4,5-dihydro-1,3-thiazol-5-yl)acetamide], the “Aspect ratio (MEAN ± SEM)” value was 3.1 ± 0.3 and the “Fusogenicity Rank” value was 35.

With `Cc1ccccc1NC(=O)NCCCCc1ccccc1` [A5, 3-(2-methylphenyl)-1-(4-phenylbutyl)urea] the “% long compare to B” value was 7%.

In the case of `CC(Sc1nnc(N2CCOCC2)n1Cc1ccccc1)C(=O)Nc1ccc2c(c1)OCCO2` (stereo not drawn) [drawing 226, 2-{[4-benzyl-5-(morpholin-4-yl)-4H-1,2,4-triazol-3-yl]sulfanyl}-N-(2,3-dihydro-1,4-benzodioxin-6-yl)propanamide], the “Aspect ratio (MEAN ± SEM)” value is reported as 6.0 ± 0.1 and the “Fusogenicity Rank” value is reported as 6.

With `Cc1nc[nH]c1CSCCn1cnc2cn(C)nc2c1=O` [drawing 206, 2-methyl-6-(2-{[(4-methyl-1H-imidazol-5-yl)methyl]sulfanyl}ethyl)-2H,6H,7H-pyrazolo[4,3-d]pyrimidin-7-one] the “Aspect ratio (MEAN ± SEM)” value was 2.8 ± 0.2 and the “Fusogenicity Rank” value was 42.

With `NC(=O)c1c(NC(=O)CSc2nc(C3CC3)n(-c3ccccc3)n2)sc2c1CCC2` [1-A5, 2-{2-[(5-cyclopropyl-1-phenyl-1H-1,2,4-triazol-3-yl)sulfanyl]acetamido}-4H,5H,6H-cyclopenta[b]thiophene-3-carboxamide] the “% long compare to B” value was −6%.

`CCCc1noc(C(C)Sc2nc3cc(C)ccc3[nH]2)n1` (stereo not drawn) [drawing 231, 5-methyl-2-{[1-(3-propyl-1,2,4-oxadiazol-5-yl)ethyl]sulfanyl}-1H-1,3-benzodiazole] was tested, and the “Aspect ratio (MEAN ± SEM)” value was 4.0 ± 1.0 and the “Fusogenicity Rank” value was 17.

For `CC(Sc1nnc(-c2c[nH]c3ccccc23)n1C1CC1)C(=O)Nc1sc2c(c1C(N)=O)CCC2` (stereo not drawn) [1-F8, 2-(2-{[4-cyclopropyl-5-(1H-indol-3-yl)-4H-1,2,4-triazol-3-yl]sulfanyl}propanamido)-4H,5H,6H-cyclopenta[b]-thiophene-3-carboxamide], the “% long compare to B” value was 2%.

`CC(Sc1nnc(N2CCOCC2)n1Cc1ccccc1)C(=O)Nc1ccc2c(c1)OCO2` (stereo not drawn) [drawing 242, N-(2H-1,3-benzodioxol-5-yl)-2-{[4-benzyl-5-(morpholin-4-yl)-4H-1,2,4-triazol-3-yl]sulfanyl}propanamide] was tested, and the “Aspect ratio (MEAN ± SEM)” value was 2.5 ± 0.6 and the “Fusogenicity Rank” value was 43.

With `Cc1ccc(-n2nnnc2SC(C)c2nc(-c3nnc[nH]3)no2)cc1` (stereo not drawn) [A11, 1-(4-methylphenyl)-5-({1-[3-(4H-1,2,4-triazol-3-yl)-1,2,4-oxadiazol-5-yl]ethyl}sulfanyl)-1H-1,2,3,4-tetrazole] the “% long compare to B” value was 4%.

`COC(=O)c1c(NC(=O)CSc2nnc(C)n2-c2ccccc2)sc2c1CCC2` [1-C10, methyl 2-{2-[(5-methyl-4-phenyl-4H-1,2,4-triazol-3-yl)sulfanyl]acetamido}-4H,5H,6H-cyclopenta[b]thiophene-3-carboxylate] was tested, and the “% long compare to B” value was 39%.

With `O=C(NCCSCc1ccsc1)C1CC2CCCC(C1)C2=O` (stereo not drawn) [drawing 241, 9-oxo-N-(2-{[(thiophen-3-yl)methyl]sulfanyl}ethyl)bicyclo[3.3.1]nonane-3-carboxamide] the “Aspect ratio (MEAN ± SEM)” value was 4.4 ± 0.6 and the “Fusogenicity Rank” value was 14.

In the case of `O=C(CSCCc1ccccn1)Nc1ccc(Cl)c(Cl)c1` [C06, N-(3,4-dichlorophenyl)-2-{[2-(pyridin-2-yl)ethyl]sulfanyl}-acetamide], the “% long compare to B” value is reported as −8%.

With `CC1CCc2c(sc(NC(=O)CSc3nnc(C4CC4)n3-c3ccccc3)c2C#N)C1` (stereo not drawn) [1-B2, N-(3-cyano-6-methyl-4,5,6,7-tetrahydro-1-benzothiophen-2-yl)-2-[(5-cyclopropyl-4-phenyl-4H-1,2,4-triazol-3-yl)sulfanyl]acetamide] the “% long compare to B” value was −11%.

For `COc1ccc(SC(C)C(=O)Nc2cc[nH]n2)cc1` (stereo not drawn) [drawing 201, 2-[(4-methoxyphenyl)sulfanyl]-N-(1H-pyrazol-3-yl)propanamide], the “Aspect ratio (MEAN ± SEM)” value was 3.8 ± 0.4 and the “Fusogenicity Rank” value was 22.

In the case of `Cc1ccccc1-n1c(SCC(=O)Nc2sc3c(c2C(N)=O)CCC3)nnc1-c1cccnc1` [1-G1, 2-(2-{[4-(2-methylphenyl)-5-(pyridin-3-yl)-4H-1,2,4-triazol-3-yl]sulfanyl}acet-amido)-4H,5H,6H-cyclopenta[b]thiophene-3-carboxamide], the “% long compare to B” value is reported as 141%.

For `CC(Sc1ccc(Br)cc1)C(=O)Nc1ccc2c(c1)OCCO2` (stereo not drawn) [drawing 239, 2-[(4-bromophenyl)sulfanyl]-N-(2,3-dihydro-1,4-benzodioxin-6-yl)propanamide], the “Aspect ratio (MEAN ± SEM)” value was 3.2 ± 0.5 and the “Fusogenicity Rank” value was 33.

For `CC(Sc1nccn1-c1cccc(F)c1)C(=O)Nc1sc2c(c1C(N)=O)CCC2` (stereo not drawn) [1-E8, 2-(2-{[1-(3-fluorophenyl)-1H-imidazol-2-yl]sulfanyl}pro-panamido)-4H,5H,6H-cyclo-penta[b]thiophene-3-carboxamide], the “% long compare to B” value was 5%.

`CC(Sc1nc(CN2CCOCC2)nc2ccccc12)C(=O)Nc1cccc(C(F)(F)F)c1` (stereo not drawn) [drawing 227, 2-({2-[(morpholin-4-yl)methyl]quinazolin-4-yl}sulfanyl)-N-[3-(trifluoromethyl)phenyl]propanamide] was tested, and the “Aspect ratio (MEAN ± SEM)” value was 5.6 ± 0.6 and the “Fusogenicity Rank” value was 7.

With `CC(Sc1nnc(-c2ccco2)n1-c1ccccc1)C(=O)Nc1sc2c(c1C(N)=O)CCC2` (stereo not drawn) [1-06, 2-(2-{[5-(furan-2-yl)-4-phenyl-4H-1,2,4-triazol-3-yl]sulfanyl}propana-mido)-4H,5H,6H-cyclopenta[b]thiophene-3-carboxamide] the “% long compare to B” value was 10%.

`CC(Sc1nncn1-c1ccccc1)C(=O)Nc1sc2c(c1C(N)=O)CCC2` (stereo not drawn) [1-G8, 2-{2-[(4-phenyl-4H-1,2,4-triazol-3-yl)sulfanyl]propanamido}-4H,5H,6H-cyclopenta[b]thio-phene-3-carboxamide] was tested, and the “% long compare to B” value was 14%.

In the case of `Cn1c(SCC(=O)Nc2sc3c(c2C(=O)NCc2ccccc2)CCCC3)nnc1C1CC1` [1-B5, N-benzyl-2-{2-[(5-cyclopropyl-4-methyl-4H-1,2,4-triazol-3-yl)sulfanyl]acetamido}-4,5,6,7-tetrahydro-1-benzothiophene-3-carboxamide], the “% long compare to B” value is reported as −31%.

`O=C1CC(SCCc2nc3ccccc3[nH]2)C(=O)N1c1cccc(F)c1` (stereo not drawn) [D09, 3-{[2-(1H-1,3-benzodiazol-2-yl)ethyl]sulfanyl}-1-(3-fluorophenyl)pyrro-lidine-2,5-dione] was tested, and the “% long compare to B” value was 73%.

With `CC1CCc2c(sc(NC(=O)CSc3nc(C4CC4)n(-c4ccccc4)n3)c2C(N)=O)C1` (stereo not drawn) [1-B11, 2-{2-[(5-cyclopropyl-1-phenyl-1H-1,2,4-triazol-3-yl)sulfanyl]acetamido}-6-methyl-4,5,6,7-tetrahydro-1-benzothiophene-3-carboxamide] the “% long compare to B” value was −12%.

— US10844023B2 (Washington University, priority 2017, dated 2020)
